Experiments:
[1] = tested on: CD-1 mice; test: Parent lipid remaining in liver at 24 h, CD-1 mice (hEPO mRNA LNPs); format: in vivo; conditions: for Approx. Percent Total Dose of Parent Lipid Remaining at 24 h: calculation assumes a 25 g mouse with a 1.5 g liver
[2] = tested on: CD-1 mice; test: hEPO expression in serum after IV lipid nanoparticles with hEPO mRNA, CD-1 mice; format: in vivo; conditions: LNP with DSPC, cholesterol, Compound I; for Mean 6 hr hEPO Concentration: serum 6 hours after injection
Method: To assess potency of expression and metabolic stability of lipids of the disclosure, hepatocyte protein expression (hEPO) was measured following administration to mice of a nanoparticle of the disclosure.
Lipid nanoparticles including DSPC as a phospholipid, cholesterol as a structural lipid, Compound I as a PEG lipid, an ionizable amino lipid of Formula (II), and an mRNA encoding hEPO were intravenously administered to CD-1 mice. The concentration of hEPO in serum was tested at 6 hours after injection.

## CCCCCCCCC(CCCCCCCC)OC(=O)CCCCCCCN(CCO)CCCCCCCC(=O)OCCC1CCC(CC)C1 (centres unmarked) [Compound 37]
[1]
  Parent Lipid Remaining (nmol/g liver tissue) at 24 h: <0.1 nmol/g liver tissue
  Approx. Percent Total Dose of Parent Lipid Remaining at 24 h: <0.1%
[2]
  hEPO AUC: 1.25E+06
  Mean 6 hr hEPO Concentration: 85052 mIU/mL

## CCCCCCCCC(CCCCCCCC)OC(=O)CCCCCCCN(CCO)CCCCCCCC(=O)OCCC1CCC(CC)CC1 (centres unmarked) [Compound 35]
[1]
  Parent Lipid Remaining (nmol/g liver tissue) at 24 h: <0.1 nmol/g liver tissue
  Approx. Percent Total Dose of Parent Lipid Remaining at 24 h: <0.1%
[2]
  hEPO AUC: 1.72E+06
  Mean 6 hr hEPO Concentration: 106485 mIU/mL

## CCCCC(CCCC)CCOC(=O)CCCCCCCN(CCCCCCCC(=O)OCCC(CCC)CCC)CCCNc1c(NC)c(=O)c1=O [Compound 52]
[1]
  Parent Lipid Remaining (nmol/g liver tissue) at 24 h: <1 nmol/g liver tissue
  Approx. Percent Total Dose of Parent Lipid Remaining at 24 h: <1%
[2]
  hEPO AUC: 3.82E+06
  Mean 6 hr hEPO Concentration: 564670 mIU/mL

## CCCCC(CCCC)CCOC(=O)CCCCCCCN(CCO)CCCCCCCC(=O)OCCC(CCCC)CCCC [Compound 69]
[2]
  Mean 6 hr hEPO Concentration: 1572094 mIU/mL

## CCCCCCCC(CCCCCCC)OC(=O)CCCCCCCN(CCCCCCCC(=O)OCCC(CCC)CCC)CCCNc1c(NC)c(=O)c1=O [Compound 63]
[1]
  Parent Lipid Remaining (nmol/g liver tissue) at 24 h: 8.9 ± 2.8 nmol/g liver tissue
  Approx. Percent Total Dose of Parent Lipid Remaining at 24 h: 9 ± 3%^
[2]
  hEPO AUC: 9.66E+06
  Mean 6 hr hEPO Concentration: 692334 mIU/mL

## CCCCCCCCC(CCCCCCCC)OC(=O)CCCCCCCN(CCCCCCCC(=O)OCCC(CCCCC)CCCCC)CCCNc1c(NC)c(=O)c1=O [Compound 29]
[1]
  Parent Lipid Remaining (nmol/g liver tissue) at 24 h: 66 ± 16 nmol/g liver tissue
  Approx. Percent Total Dose of Parent Lipid Remaining at 24 h: 68%
[2]
  hEPO AUC: 1.23E+07
  Mean 6 hr hEPO Concentration: 808734 mIU/mL

## CCCCCC(CCCCC)CCOC(=O)CCCCCCCN(CCCCCCCC(=O)OC(CCCC)CCCC)CCCNc1c(NC)c(=O)c1=O [Compound 58]
[1]
  Parent Lipid Remaining (nmol/g liver tissue) at 24 h: 15 ± 2 nmol/g liver tissue
  Approx. Percent Total Dose of Parent Lipid Remaining at 24 h: 15%
[2]
  hEPO AUC: 2.33E+07
  Mean 6 hr hEPO Concentration: 1347883 mIU/mL

## CCCCCCCCC(CCCCCCCC)OC(=O)CCCCCCCN(CCCCCCCC(=O)OCCC1CCC(CC)C1)CCCNc1c(NC)c(=O)c1=O (centres unmarked) [Compound 40]
[1]
  Parent Lipid Remaining (nmol/g liver tissue) at 24 h: 3 ± 0.3 nmol/g liver tissue
  Approx. Percent Total Dose of Parent Lipid Remaining at 24 h: 3%
[2]
  hEPO AUC: 4.64E+06
  Mean 6 hr hEPO Concentration: 303957 mIU/mL

## CCCCC(CCCC)OC(=O)CCCCCCCN(CCCCCCCC(=O)OCCC(CCC)CCC)CCCNc1c(NC)c(=O)c1=O [Compound 66]
[1]
  Parent Lipid Remaining (nmol/g liver tissue) at 24 h: 0.1 ± 0.03 nmol/g liver tissue
  Approx. Percent Total Dose of Parent Lipid Remaining at 24 h: <1%
[2]
  hEPO AUC: 2.10E+05
  Mean 6 hr hEPO Concentration: 17801 mIU/mL

## CCCCCCCCC(CCCCCCCC)OC(=O)CCCCCCCN(CCCO)CCCCCCCC(=O)OCCC(CCCC)CCCC [Compound 49]
[2]
  Mean 6 hr hEPO Concentration: 2385524 mIU/mL

## CCCCCCCCC(CCCCCCCC)OC(=O)CCCCCCCN(CCCCO)CCCCCCCC(=O)OCCC(CCCC)CCCC [Compound 50]
[2]
  Mean 6 hr hEPO Concentration: 2617164 mIU/mL

## CCCCCC(CCCCC)CCOC(=O)CCCCCCCN(CCCO)CCCCCCCC(=O)OCCC(CCCCC)CCCCC [Compound 42]
[2]
  Mean 6 hr hEPO Concentration: 1428145 mIU/mL

## CCCCCC(CCCCC)CCOC(=O)CCCCCCCN(CCCCO)CCCCCCCC(=O)OCCC(CCCCC)CCCCC [Compound 44]
[2]
  Mean 6 hr hEPO Concentration: 1273871 mIU/mL

## CCCCCC(CCCCC)OC(=O)CCCCCCCN(CCO)CCCCCCCC(=O)OCCC(CCC)CCC [Compound 68]
[2]
  Mean 6 hr hEPO Concentration: 488014 mIU/mL

## CCCCCC(CCCCC)CCOC(=O)CCCCCCCN(CCO)CCCCCCCC(=O)OCCC(CCC)CCC [Compound 67]
[2]
  Mean 6 hr hEPO Concentration: 969620 mIU/mL

## CCCCCC(CCCCC)OC(=O)CCCCCCCN(CCO)CCCCCCCC(=O)OCCC(CCCC)CCCC [Compound 70]
[2]
  Mean 6 hr hEPO Concentration: 1479577 mIU/mL

## CCCCCCC(CCCCCC)OC(=O)CCCCCCCN(CCO)CCCCCCCC(=O)OCCC(CCC)CCC [Compound 71]
[2]
  Mean 6 hr hEPO Concentration: 1921281 mIU/mL
